Test results published in paper PMC6886737 (Bioorganic & medicinal chemistry letters, 2019).
Blank lines part the entries; values can stand above or below the molecule they belong to.

Experiments:
[1] = target: T1, CDK14 (Homo sapiens, UniProt O94921); experiment: Biotin JNK-IN-7 pull-down assay, cellular CDK14 engagement; conditions: for concentration at which CDK14 pulldown is blocked / effects shown / activity in the cellular pull-down assay: cells treated 4 h
Target sequence in this assay (O94921 whole entry): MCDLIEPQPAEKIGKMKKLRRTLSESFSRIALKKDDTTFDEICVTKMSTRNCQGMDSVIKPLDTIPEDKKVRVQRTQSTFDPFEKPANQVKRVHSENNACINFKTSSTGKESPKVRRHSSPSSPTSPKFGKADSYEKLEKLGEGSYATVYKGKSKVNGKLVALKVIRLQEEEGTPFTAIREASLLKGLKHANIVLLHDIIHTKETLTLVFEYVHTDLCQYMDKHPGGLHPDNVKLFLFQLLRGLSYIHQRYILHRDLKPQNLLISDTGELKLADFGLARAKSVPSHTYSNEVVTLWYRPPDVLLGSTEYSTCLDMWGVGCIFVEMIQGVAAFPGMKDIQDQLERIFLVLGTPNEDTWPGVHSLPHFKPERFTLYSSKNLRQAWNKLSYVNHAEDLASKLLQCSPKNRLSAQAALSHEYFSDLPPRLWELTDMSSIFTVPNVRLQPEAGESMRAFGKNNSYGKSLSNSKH

[2] = target: T1, CDK14; experiment: LanthaScreen CDK14 binding assay
Target sequence in this assay (O94921 whole entry): as above
Target sequence in this assay (Q8ND76 whole entry partner): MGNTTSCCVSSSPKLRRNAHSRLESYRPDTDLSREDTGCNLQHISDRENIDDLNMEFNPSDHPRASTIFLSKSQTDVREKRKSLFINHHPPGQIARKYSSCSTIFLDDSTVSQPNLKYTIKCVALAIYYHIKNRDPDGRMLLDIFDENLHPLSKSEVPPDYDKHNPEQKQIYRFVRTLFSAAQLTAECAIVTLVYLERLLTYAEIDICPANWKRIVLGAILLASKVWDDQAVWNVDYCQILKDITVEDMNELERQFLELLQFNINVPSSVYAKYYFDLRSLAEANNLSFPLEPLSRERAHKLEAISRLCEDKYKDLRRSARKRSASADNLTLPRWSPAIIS

[3] = tested on: HCT116 cell line; experiment: CellTiter-Glo proliferation assay; format: cell-based
[4] = target: CDK10 (Homo sapiens, UniProt Q15131); experiment: KiNativ profiling; format: cell-based; conditions: read-out: CDK10 percent inhibition relative to DMSO
[5] = target: CDK16 (Homo sapiens, UniProt Q00536); experiment: KiNativ profiling; format: cell-based; conditions: read-out: CDK16 percent inhibition relative to DMSO
[6] = target: CDK2 (Homo sapiens, UniProt P24941); experiment: KiNativ profiling; format: cell-based; conditions: read-out: CDK2 percent inhibition relative to DMSO

Chain of CDK10 (Q15131 whole entry): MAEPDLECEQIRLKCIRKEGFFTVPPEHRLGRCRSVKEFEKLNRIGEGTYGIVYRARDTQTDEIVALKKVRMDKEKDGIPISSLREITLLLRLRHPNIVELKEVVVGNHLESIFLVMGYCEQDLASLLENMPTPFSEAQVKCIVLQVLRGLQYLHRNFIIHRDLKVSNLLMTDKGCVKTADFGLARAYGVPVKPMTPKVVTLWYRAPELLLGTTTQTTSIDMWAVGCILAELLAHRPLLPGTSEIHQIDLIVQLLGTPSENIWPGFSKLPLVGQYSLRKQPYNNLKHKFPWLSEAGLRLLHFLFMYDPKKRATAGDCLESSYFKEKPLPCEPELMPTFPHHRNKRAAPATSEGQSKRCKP
Chain of CDK16 (Q00536 whole entry): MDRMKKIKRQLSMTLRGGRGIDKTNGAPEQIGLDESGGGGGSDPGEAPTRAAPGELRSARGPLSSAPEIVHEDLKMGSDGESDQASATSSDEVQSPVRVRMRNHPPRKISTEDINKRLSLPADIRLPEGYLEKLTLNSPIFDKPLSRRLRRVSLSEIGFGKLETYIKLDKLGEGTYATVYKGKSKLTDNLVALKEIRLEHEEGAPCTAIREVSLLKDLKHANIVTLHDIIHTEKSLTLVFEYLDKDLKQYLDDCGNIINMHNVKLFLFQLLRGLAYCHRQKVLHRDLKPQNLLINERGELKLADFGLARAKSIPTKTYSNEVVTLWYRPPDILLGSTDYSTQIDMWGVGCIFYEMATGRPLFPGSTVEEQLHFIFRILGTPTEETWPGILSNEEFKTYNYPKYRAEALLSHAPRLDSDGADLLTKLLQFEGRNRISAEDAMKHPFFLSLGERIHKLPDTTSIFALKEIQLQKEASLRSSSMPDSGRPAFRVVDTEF

SMILES: O=C(NC1CCNCC1)c1n[nH]cc1NC(=O)c1c(Cl)cccc1Cl [AT7519, N-(4-piperidinyl)-4-(2,6-dichlorobenzoylamino)-1H-pyrazole-3-carboxamide, reference compound]
CDK14 cellular engagement screen result ([1]; 1 μM, screen of library of reported CDK inhibitors): efficient CDK14 inhibitor

concentration at which CDK14 pulldown is blocked / effects shown [1]: 500 to 1000 nM
SMILES: C=CC(=O)Nc1cccc(C(=O)N2CCC(NC(=O)c3n[nH]cc3NC(=O)c3c(Cl)cccc3Cl)CC2)c1.O=C(O)C(F)(F)F [Compound 27]

concentration at which CDK14 pulldown is blocked / effects shown [1]: 500 to 1000 nM
SMILES: CN(C)C/C=C/C(=O)Nc1cccc(C(=O)Nc2ccc(NC(=O)c3n[nH]cc3NC(=O)c3c(Cl)cccc3Cl)cc2)c1.O=C(O)C(F)(F)F [Compound 46]

SMILES: C=CC(=O)Nc1cccc(C(=O)Nc2ccc(NC(=O)c3n[nH]cc3NC(=O)c3c(Cl)cccc3Cl)c(C)c2)c1.O=C(O)C(F)(F)F [Compound 47]
CDK14 binding potency [2]: not tolerated by CDK14

SMILES: Cc1cc(NC(=O)c2cccc(NC(=O)/C=C/CN(C)C)c2)ccc1NC(=O)c1n[nH]cc1NC(=O)c1c(Cl)cccc1Cl.O=C(O)C(F)(F)F [Compound 48]
CDK14 binding potency [2]: not tolerated by CDK14

SMILES: CN(C)CC/C=C/C(=O)Nc1ccc(N2CCC(NC(=O)c3n[nH]cc3NC(=O)c3c(Cl)cccc3Cl)CC2)cc1.O=C(O)C(F)(F)F [Compound 54]
HCT116 toxicity [3]: low HCT116 toxicity

activity in the cellular pull-down assay [1]: not active, or weakly active
SMILES: CN(C)CC/C=C/C(=O)Nc1cccc(N2CCC(NC(=O)c3n[nH]cc3NC(=O)c3c(Cl)cccc3Cl)CC2)c1.O=C(O)C(F)(F)F [Compound 56]
HCT116 toxicity [3]: low HCT116 toxicity

activity in the cellular pull-down assay [1]: not active, or weakly active
SMILES: CN(C)CC/C=C/C(=O)Nc1ccc(S(=O)(=O)N2CC[C@@H](NC(=O)c3n[nH]cc3NC(=O)c3c(Cl)cccc3Cl)C2)cc1.O=C(O)C(F)(F)F [Compound 68]

inhibition at 1 µM [4]: > 75%
inhibition at 1 µM [5]: > 75%
inhibition at 1 µM [6]: > 75%
concentration for complete inhibition of CDK14 pull-down [1]: below 1 μM
SMILES: CN(C)C/C=C/C(=O)Nc1cccc(S(=O)(=O)N2CCC(NC(=O)c3n[nH]cc3NC(=O)c3c(Cl)cc(Cl)cc3Cl)CC2)c1.O=C(O)C(F)(F)F [Compound 100]

CDK14 binding potency [2]: potent CDK14 inhibition
SMILES: CN(C)C/C=C/C(=O)Nc1cccc(S(=O)(=O)N2CCC(NC(=O)c3n[nH]cc3NC(=O)c3ccccc3)CC2)c1.O=C(O)C(F)(F)F [Compound 107]
HCT116 toxicity [3]: reduced HCT116 toxicity
